From US6949571B2, “1,2-dihydropyridine compounds, process for preparation of the same and use thereof” (Eisai Co., Ltd., priority 2000, dated 2005)

test system: AMPA receptor; conditions: Table 1; primary culture of rat embryo cerebral cortex nerve cells, 2 μM AMPA, 1 μM MK-801
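Note: primary rat embryonic cortical neurons grown on an astrocyte layer in 96-well plates, used after at least 8 to 10 days in culture, Fura2-AM fluorescence ratio at 340/380 nm excitation.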

| SMILES | IC50 |
| --- | --- |
| CSc1ccc(-n2cc(-c3ccccn3)cc(-c3ccccc3C#N)c2=O)cc1 [Example 26, 3-(2-Cyanophenyl)-5-(2-pyridyl)-1-(4-methylthiophenyl)-1,2-dihydropyridin-2-one] | 20 nM |
| COc1ncc(-c2ccccn2)cc1-c1ccccc1C#N [Example 5, 3-(2-Cyanophenyl)-5-(2-pyridyl)-2-methoxypyridine] | 600 nM |
| COc1cccc(-c2cc(-c3ccccn3)cn(-c3ccccc3)c2=O)c1 [Example 69, 3-(3-Methoxyphenyl)-5-(2-pyridyl)-1-phenyl-1,2-dihydropyridin-2-one] | 900 nM |
| N#Cc1ccccc1-c1cc(-c2ccccn2)cn(-c2ccc(F)nc2)c1=O [Example 123, 3-(2-Cyanophenyl)-5-(2-pyridyl)-1-(2-fluoropyridin-5-yl)-1,2-dihydropyridin-2-one] | 200 nM |
| COC(=O)c1ccccc1-c1cc(-c2ccccn2)cn(-c2ccccc2)c1=O [Example 58, 3-(2-Methoxycarbonylphenyl)-5-(2-pyridyl)-1-phenyl-1,2-dihydropyridin-2-one] | 100 nM |
| CNC(=O)c1cccc(-n2cc(-c3ccccn3)cc(-c3ccccc3C#N)c2=O)c1 [Example 15, 3-(2-Cyanophenyl)-5-(2-pyridyl)-1-(3-methylaminocarbonylphenyl)-1,2-dihydropyridin-2-one] | 50 nM |
| N#Cc1ccccc1-c1cc(-c2ccccn2)cn(-c2ccsc2)c1=O [Example 105, 3-(2-Cyanophenyl)-5-(2-pyridyl)-1-(thiophen-3-yl)-1,2-dihydropyridin-2-one] | 30 nM |
| N#Cc1ccccc1-c1cc(-c2cccs2)cn(-c2ccccc2)c1=O [Example 46, 3-(2-Cyanophenyl)-5-(thiophen-2-yl)-1-phenyl-1,2-dihydropyridin-2-one] | 400 nM |
| N#Cc1ccccc1-c1cc(-c2ccccn2)cn(-c2cccc(Cl)c2)c1=O [Example 102, 3-(2-Cyanophenyl)-5-(2-pyridyl)-1-(3-chlorophenyl)-1,2-dihydropyridin-2-one] | 20 nM |
| N#Cc1ccccc1-c1cc(-c2ccccn2)cn(-c2ccc(C(F)(F)F)cc2)c1=O [Example 108, 3-(2-Cyanophenyl)-5-(2-pyridyl)-1-(4-trifluoromethylphenyl)-1,2-dihydropyridin-2-one] | 30 nM |
| N#Cc1ccccc1-c1cc(-c2ccncc2)cn(-c2ccccc2)c1=O [Example 35, 3-(2-Cyanophenyl)-5-(4-pyridyl)-1-phenyl-1,2-dihydropyridin-2-one] | 3100 nM |
| O=c1c(-c2cccnc2F)cc(-c2ccccc2)cn1-c1cccnc1 [Example 87, 3-(2-Fluoro-3-pyridyl)-5-phenyl-1-(3-pyridyl)-1,2-dihydropyridin-2-one] | 1200 nM |
| CSc1ccc(-n2cc(-c3ccccn3)cc(-c3cccnc3F)c2=O)cc1 [Example 84, 3-(2-Fluoro-3-pyridyl)-5-(2-pyridyl)-1-(4-methylthiophenyl)-1,2-dihydropyridin-2-one] | 900 nM |
| CNc1cccc(-n2cc(-c3ccccn3)cc(-c3ccccc3C#N)c2=O)c1 [Example 11, 3-(2-Cyanophenyl)-5-(2-pyridyl)-1-(3-methylaminophenyl)-1,2-dihydropyridin-2-one] | 60 nM |
| O=c1c(-c2ccccn2)cc(-c2ccccn2)cn1-c1ccccc1 [Example 62, 3-(2-Pyridyl)-5-(2-pyridyl)-1-phenyl-1,2-dihydropyridin-2-one] | 3100 nM |
| O=c1c(-c2cccnc2F)cc(-c2ccccn2)cn1-c1ccc(F)cc1 [Example 82, 3-(2-Fluoro-3-pyridyl)-5-(2-pyridyl)-1-(4-fluorophenyl)-1,2-dihydropyridin-2-one] | 800 nM |
| COc1cccc(-n2cc(-c3ccccn3)cc(-c3ccccc3Cl)c2=O)c1 [Example 74, 3-(2-Chlorophenyl)-5-(2-pyridyl)-1-(3-methoxyphenyl)-1,2-dihydropyridin-2-one] | 200 nM |
| N#Cc1ccccc1-c1cc(-c2ccccn2)cn(-c2cncnc2)c1=O [Example 111, 3-(2-Cyanophenyl)-5-(2-pyridyl)-1-(pyrimidin-5-yl)-1,2-dihydropyridin-2-one] | 400 nM |

same assay, conditions: Table 2; suppression of AMPA-induced calcium influx into nerve cells

| IC50 | SMILES |
| --- | --- |
| 1800 nM | N#Cc1ccccc1-c1cc(-c2ccccn2)cn(-c2cccc(OCCCN3CCCCC3)c2)c1=O [Example 244, 3-(2-Cyanophenyl)-1-[3-(piperidinopropyloxy)phenyl]-5-(2-pyridyl)-1,2-dihydropyridin-2-one] |
| 7200 nM | O=c1c(-c2ccc(N3CCCC3)nc2)cc(-c2ccccn2)cn1-c1ccccc1 [Example 285, 3-(2-Pyrrolidinopyridin-5-yl)-5-(2-pyridyl)-1-phenyl-1,2-dihydropyridin-2-one] |
| 6100 nM | O=c1c(C=Cc2ccccn2)cc(-c2ccccn2)cn1-c1ccccc1 [Example 187, 3-(2-Pyridylethenyl)-5-(2-pyridyl)-1-phenyl-1,2-dihydropyridin-2-one] |
| 500 nM | O=c1c(-c2nccs2)cc(-c2ccccn2)cn1-c1ccccc1 [Example 255, 1-Phenyl-5-(2-pyridyl)-3-(2-thiazoyl)-1,2-dihydropyridin-2-one] |
| 4300 nM | CC(=O)Nc1cccc(-c2cc(-c3ccccn3)cn(-c3ccccc3)c2=O)c1 [Example 232, 3-[3-(Acetylamino)phenyl]-1-phenyl-5-(2-pyridyl)-1,2-dihydropyridin-2-one] |
| 100 nM | N#Cc1ccccc1-c1cc(-c2ccccn2)cn(-c2ccccc2CO)c1=O [Example 149, 3-(2-Cyanophenyl)-5-(2-pyridyl)-1-(2-hydroxymethylphenyl)-1,2-dihydropyridin-2-one] |
| 300 nM | CN(C)CCOc1cccc(-n2cc(-c3ccccn3)cc(-c3ccccc3C#N)c2=O)c1 [Example 239, 3-(2-Cyanophenyl)-1-[3-(dimethylaminoethoxy)phenyl]-5-(2-pyridyl)-1,2-dihydropyridin-2-one] |
| 3600 nM | N#Cc1ccccc1-c1cc(-c2ccc3ccccc3c2)cn(-c2cccnc2)c1=O [Example 211, 3-(2-Cyanophenyl)-5-(2-naphthyl)-1-(3-pyridyl)-1,2-dihydropyridin-2-one] |
| 1200 nM | CN(C)CCCOc1cccc(-n2cc(-c3ccccn3)cc(-c3ccccc3C#N)c2=O)c1 [Example 243, 3-(2-Cyanophenyl)-1-[3-(dimethylaminopropyloxy)phenyl]-5-(2-pyridyl)-1,2-dihydropyridin-2-one] |
| 10 nM | CN(C)CCOc1cccc(-n2cc(-c3ccccn3)cc(-c3ccccc3Cl)c2=O)c1 [Example 144, 3-(2-Chlorophenyl)-5-(2-pyridyl)-1-(3-dimethylaminoethoxyphenyl)-1,2-dihydropyridin-2-one] |
| 1700 nM | O=c1c(-c2ccccc2Cl)cc(COc2ccccc2)cn1-c1ccccc1 [Example 185, 3-(2-Chlorophenyl)-5-phenoxymethyl-1-phenyl-1,2-dihydropyridin-2-one] |
| 1900 nM | O=c1c(C2=COCCO2)cc(-c2ccccn2)cn1-c1ccccc1 [Example 269, 3-(5,6-Dihydro-1,4-dioxin-2-yl)-1-phenyl-5-(2-pyridyl)-1,2-dihydropyridin-2-one] |
| 300 nM | N#Cc1ccccc1-c1cc(-c2ncccc2O)cn(-c2ccccc2)c1=O [Example 198, 3-(2-Cyanophenyl)-5-(3-hydroxypyridin-2-yl)-1-phenyl-1,2-dihydropyridin-2-one] |

| SMILES | IC50 |
| --- | --- |
| N#Cc1ccccc1-c1cc(-c2ccc(N)cn2)cn(-c2ccccc2)c1=O [Example 217, 5-(5-Aminopyridin-2-yl)-3-(2-cyanophenyl)-1-phenyl-1,2-dihydropyridin-2-one] | 1300 nM |
| O=c1c(-c2cccnc2F)cc(-c2ncccn2)cn1-c1cccnc1 [Example 263, 3-(2-Fuluoropyridin-3-yl)-1-(3-pyridyl)-5-(2-pyrimidinyl)-1,2-dihydropyridin-2-one] | 1000 nM |
| Cc1ccnc(-c2cc(-c3ccccc3C#N)c(=O)n(-c3ccccc3)c2)c1 [Example 197, 3-(2-Cyanophenyl)-5-(4-methylpyridin-2-yl)-1-phenyl-1,2-dihydropyridin-2-one] | 2900 nM |
| N#Cc1ccccc1-c1cc(-c2ccccn2)cn(-c2ccc(CO)cc2)c1=O [Example 148, 3-(2-Cyanophenyl)-5-(2-pyridyl)-1-(4-hydroxymethylphenyl)-1,2-dihydropyridin-2-one] | 800 nM |
| N#Cc1ccccc1-c1cc(-c2ccccn2)cn(-c2ccc([N+](=O)[O-])cc2)c1=O [Example 252, 3-(2-Cyanophenyl)-1-(4-nitrophenyl)-5-(2-pyridyl)-1,2-dihydropyridin-2-one] | 300 nM |

same assay, conditions: Table 3; primary culture of rat embryo cerebral cortex nerve cells, 2 μM AMPA, 1 μM MK-801

| SMILES | IC50 |
| --- | --- |
| O=c1c(C2C3CC4CC(C3)CC2C4)cc(-c2ccccn2)cn1-c1ccccc1 (stereo not shown) [Example 387, 3-(2-Adamantyl)-5-(2-pyridyl)-1-phenyl-1,2-dihydropyridin-2-one] | 7000 nM |
| O=c1c(-c2nc3cnccc3[nH]2)cc(-c2ccccn2)cn1-c1ccccc1 [Example 367, 3-(1H-Imidazo[4,5-c]pyridin-2-yl)-5-(2-pyridyl)-1-phenyl-1,2-dihydropyridin-2-one] | 600 nM |
| N#Cc1ccccc1-c1cc(-c2ccccn2)cn(-c2cccc(OC3CCN(C(=O)c4ccccc4)CC3)c2)c1=O [Example 334, 1-[3-(N-benzoylpiperidin-4-yl-oxy)phenyl]-3-(2-cyanophenyl)-5-(2-pyridyl)-1,2-dihydropyridin-2-one] | 600 nM |
| O=c1c(-c2nc3cccc4c3n2CCC4)cc(-c2ccccn2)cn1-c1ccccc1 [Example 359, 3-(5,6-Dihydro-4H-imidazo[4,5,1-i,j]quinolin-2-yl)-5-(2-pyridyl)-1-phenyl-1,2-dihydropyridin-2-one] | 2300 nM |
| O=C(NC1CCCCC1)c1cc(-c2ccccn2)cn(-c2ccccc2)c1=O [Example 344, 3-Cyclohexylaminocarbonyl-5-(2-pyridyl)-1-phenyl-1,2-dihydropyridin-2-one] | 4700 nM |
| N#Cc1ccccc1-c1cc(NC(=O)c2ccccn2)cn(-c2ccccc2)c1=O [Example 309, 3-(2-Cyanophenyl)-1-phenyl-5-(2-pyridincarbonyl)amino-1,2-dihydropyridin-2-one] | 4100 nM |

same assay, conditions: control compound; same test, 2 μM AMPA

| SMILES | IC50 |
| --- | --- |
| CC1=NN=C(c2ccc(N)cc2)c2cc3c(cc2C1)OCO3 [GYKI 52466, reference compound] | 9020 nM |
